Values after ≈ are worked out from the molar mass of the structure shown. “Also recorded” adds a separate entry of the source. Read-outs that look alike come from different tables or passages of the source.
Tests used:
Assay type in all cases: cell-based, human
HaCaT cells [1] = assay: MTT assay, HaCaT keratinocytes; details: 24 h; for IC50: Homo sapiens, HaCaT, read-out: IC50 ± SD, HaCaT
Description: (§1) The human cervical (HeLa S3) and ovarian (SKOV-3) adenocarcinomas, acute human lymphoblastic leukaemia (MOLT-4) cell lines and human keratinocytes (HaCaT) were obtained from the American Type Culture Collection (ATCC, Manassas, VA, USA). […] All the media were supplemented with 10% (v/v) foetal bovine serum (FBS), 2 mM L-glutamine (except for McCoy’s 5 A), 100 units/mL of penicillin, 100 µg/mL of streptomycin (Sigma-Aldrich), and were kept at 37 °C in a humidified 5% CO2 incubator. The viability of all the cells was determined by 3-(4,5-dimethylthiazol-2-yl)-2,5-diphenyltetrazolium bromide (MTT) assay. […] The range of concentrations was selected experimentally to obtain symmetrical sigmoidal shape of dose-response curves generated by GraFit v. 7 (Erithacus Software, West Sussex, UK). […] Following treatment, the media with the extracts, fraction and compounds were removed and replaced with fresh media with MTT (0.5 mg/mL). After 3 h of incubation, the absorption of the formazan solution was measured at 570 nm with a plate reader (Epoch, BioTek, Winooski, VT, USA). The results are expressed as IC50 mean values (±SD, standard deviation) of at least two independent experiments, in six repetitions.

HeLa cells [2] = assay: MTT assay, HeLa; details: for IC50: Homo sapiens, HeLa, read-out: IC50 ± SD, HeLa; for IC50 / IC50 ± SD, HeLa: 24 h; for Selectivity index (SI), HeLa: SI = IC50 HaCaT/IC50 HeLa, from MTT results
Description: as §1

[3] = tested on: SKOV-3, HeLa and MOLT-4 cell lines; assay: Cytotoxicity (MTT) on the tested cell lines, stated jointly; details: for IC50: Homo sapiens, read-out: IC50, tested cell lines; for cytotoxic activity, in words: NCI guideline: cytotoxic if IC50 under 20–30 μg/mL
Description: The viability of all the cells was determined by 3-(4,5-dimethylthiazol-2-yl)-2,5-diphenyltetrazolium bromide (MTT) assay. […] The range of concentrations was selected experimentally to obtain symmetrical sigmoidal shape of dose-response curves generated by GraFit v. 7 (Erithacus Software, West Sussex, UK). […] Following treatment, the media with the extracts, fraction and compounds were removed and replaced with fresh media with MTT (0.5 mg/mL). After 3 h of incubation, the absorption of the formazan solution was measured at 570 nm with a plate reader (Epoch, BioTek, Winooski, VT, USA). The results are expressed as IC50 mean values (±SD, standard deviation) of at least two independent experiments, in six repetitions. To determine the cytotoxic selectivity of the extracts, fraction and compounds, the selectivity index (SI) was calculated according to the formula: SI = IC50^(non-cancer cells)/IC50^(cancer cells) (Table 1).

SKOV-3 cells [4] = assay: MTT assay, SKOV-3; details: for IC50: Homo sapiens, read-out: IC50 ± SD, SKOV-3; for Selectivity index (SI), SKOV-3: SI = IC50 HaCaT/IC50 SKOV-3, from MTT results
Description: as §1

HeLa cells [5] = assay: RTCA (xCELLigence) cell proliferation assay, HeLa; details: for IC50: Homo sapiens, HeLa, read-out: IC50 ± SD, HeLa; for Selectivity index (SI), HeLa: SI = IC50 HaCaT/IC50 HeLa, from RTCA results
Description: (§2) The human cervical (HeLa S3) and ovarian (SKOV-3) adenocarcinomas, acute human lymphoblastic leukaemia (MOLT-4) cell lines and human keratinocytes (HaCaT) were obtained from the American Type Culture Collection (ATCC, Manassas, VA, USA). The HeLa and HaCaT cells were cultured in Dulbecco’s Modified Eagle’s Medium (DMEM), SKOV-3 and MOLT-4 cells were cultured in McCoy’s 5 A and RPMI 1640 Media, respectively. All the media were supplemented with 10% (v/v) foetal bovine serum (FBS), 2 mM L-glutamine (except for McCoy’s 5 A), 100 units/mL of penicillin, 100 µg/mL of streptomycin (Sigma-Aldrich), and were kept at 37 °C in a humidified 5% CO2 incubator.
(§3) The xCELLigence Real-Time Cell Analyzer Dual Plate (RTCA DP, ACEA Biosciences, San Diego, CA, USA) was used for monitoring of viability of adherent cells (HeLa, SKOV-3 and HaCaT) treated with the extracts (A, B), fraction C and sapogenins for 24 h. The cells were seeded at a density of 2 × 10^4 cells/well into E-plate 16 (ACEA Biosciences). When the cells entered log phase, the extracts, fraction and steroidal saponins were added in the final concentration range of 5.0–120.0 µg/mL, 5.0–100.0 µg/mL, and 1.0–50.0 µg/mL, respectively. The range of concentrations was selected experimentally to obtain symmetrical sigmoidal shape of dose-response curves generated by RTCA software v. 1.2.1 (ACEA Biosciences). The maximal concentrations of the extract A, fraction and compounds solvents in the RTCA experiments were 4.0% (v/v) for methanol and 0.8% (v/v) for DMSO. To obtain viability profiles and calculate IC50 values, we used the RTCA software v. 1.2.1. All the experiments were performed in duplicate, in three independent repeats.

HaCaT cells [6] = assay: RTCA (xCELLigence) cell proliferation assay, HaCaT; details: 24 h; for IC50: Homo sapiens, HaCaT, read-out: IC50 ± SD, HaCaT
Description: as §2, §3

SKOV-3 cells [7] = assay: RTCA (xCELLigence) cell proliferation assay, SKOV-3; details: for IC50: Homo sapiens, SK-OV-3, 24 h, read-out: IC50 ± SD, SKOV-3; for IC50 / IC50 ± SD, SKOV-3: RTCA, 24 h; for Selectivity index (SI), SKOV-3: SI = IC50 HaCaT/IC50 SKOV-3, from RTCA results
Description: as §2, §3

[8] = MTT, stated jointly for the tested cell lines

Compound | IC50 (HeLa cells [2]; MTT) [µg/mL] | IC50 (SKOV-3 cells [4]; SK-OV-3, MTT, 24 h) [µg/mL] | IC50 ± SD, HeLa (HeLa cells [2]; MTT) [µg/mL] | IC50 ± SD, SKOV-3 (SKOV-3 cells [4]; MTT, 24 h) | IC50 (HaCaT cells [1]; MTT) [µg/mL] | cytotoxic activity, in words ([3]; MTT) | IC50 ± SD, HaCaT (HaCaT cells [1]; MTT) [µg/mL] | IC50, tested cell lines [3, 8] [µg/mL] | Selectivity index (SI), HeLa (HeLa cells [2]) | Selectivity index (SI), HeLa (HeLa cells [5]) | Selectivity index (SI), SKOV-3 (SKOV-3 cells [7]) | Selectivity index (SI), SKOV-3 (SKOV-3 cells [4]) | also measured
C[C@@H]1CC[C@@]2(OC1)O[C@H]1C[C@H]3[C@@H]4CC[C@H]5C[C@@H](O)CC[C@]5(C)[C@H]4CC[C@]3(C)[C@H]1[C@@H]2C [Tigogenin] | 35.6 ± 3.69 (≈ 85.4 µM) | > 50 | – | lowest activity | 31.1 ± 2.31 (≈ 74.6 µM) | active | – | – | 0.87 | 1.30 | 1.16 | < 0.62 | IC50 (HeLa cells [5]; RTCA, 24 h): 25.1 ± 0.12 µg/mL (≈ 60.2 µM); IC50 (HaCaT cells [6]): 32.7 ± 0.07 µg/mL (≈ 78.5 µM); IC50 (SKOV-3 cells [7]): 28.3 ± 3.46 µg/mL (≈ 67.9 µM)
O=c1cc(-c2ccc(O)c(O)c2)oc2c([C@@H]3O[C@H](CO)[C@@H](O)[C@H](O)[C@H]3O)c(O)cc(O)c12 [Orientin] | – | – | – | – | – | inactive | – | – | – | – | – | – | IC50 (HaCaT cells [1]): > 50 µg/mL; IC50 (HeLa cells [2]): > 50 µg/mL; IC50 [3]: > 50 µg/mL; IC50 (SKOV-3 cells [4]; SK-OV-3, 24 h): > 50 µg/mL
O=c1cc(-c2ccc(O)cc2)oc2c([C@@H]3O[C@H](CO)[C@@H](O)[C@H](O)[C@H]3O)c(O)cc(O)c12 [Vitexin] | – | – | – | – | – | inactive | – | – | – | – | – | – | IC50 (HaCaT cells [1]): > 50 µg/mL; IC50 [3]: > 50 µg/mL; IC50 (SKOV-3 cells [4]; SK-OV-3, 24 h): > 50 µg/mL
C[C@H]1CC[C@@]2(OC1)O[C@H]1C[C@H]3[C@@H]4CC=C5C[C@@H](O)CC[C@]5(C)[C@H]4CC[C@]3(C)[C@H]1[C@@H]2C [Yamogenin] | – | – | 16.5 ± 0.59 (≈ 39.8 µM) | 16.70 ± 0.08 µg/mL (≈ 40.3 µM) | – | cytotoxic; also recorded: active | 9.70 ± 0.91 (≈ 23.4 µM) | – | 0.59 | 0.84 | 0.69 | 0.58 | IC50 ± SD, HeLa (HeLa cells [5]; RTCA, 24 h): 19.60 ± 1.41 µg/mL (≈ 47.3 µM); IC50 ± SD, HaCaT (HaCaT cells [6]): 16.40 ± 1.41 µg/mL (≈ 39.6 µM); IC50 ± SD, SKOV-3 (SKOV-3 cells [7]): 23.90 ± 1.48 µg/mL (≈ 57.6 µM); IC50 ± SD, SKOV-3 (SKOV-3 cells [7]; listed as yamogenin): about 20 μg/mL

More lines, main results first:

IC50 (HeLa cells [2]; MTT) [µg/mL] | IC50 (SKOV-3 cells [4]; SK-OV-3, MTT, 24 h) [µg/mL] | IC50 ± SD, HeLa (HeLa cells [2]; MTT) [µg/mL] | IC50 ± SD, SKOV-3 (SKOV-3 cells [4]; MTT, 24 h) | Compound | IC50 (HaCaT cells [1]; MTT) [µg/mL] | cytotoxic activity, in words ([3]; MTT) | IC50 ± SD, HaCaT (HaCaT cells [1]; MTT) [µg/mL] | IC50, tested cell lines [3, 8] [µg/mL] | Selectivity index (SI), HeLa (HeLa cells [2]) | Selectivity index (SI), HeLa (HeLa cells [5]) | Selectivity index (SI), SKOV-3 (SKOV-3 cells [7]) | Selectivity index (SI), SKOV-3 (SKOV-3 cells [4]) | also measured
> 50 | > 50 | – | – | O=c1cc(-c2ccc(O)c(O)c2)oc2cc(O)c([C@@H]3O[C@H](CO)[C@@H](O)[C@H](O)[C@H]3O)c(O)c12 [Isoorientin] | > 50 | inactive | – | – | – | – | – | – | IC50 [3, 8]: > 50 µg/mL
– | – | >50 | >50 µg/mL | O=c1cc(-c2ccc(O)cc2)oc2c([C@@H]3O[C@H](CO)[C@@H](O)[C@H](O)[C@H]3O)c(O)c([C@@H]3OC[C@@H](O)[C@H](O)[C@H]3O)c(O)c12 [Vicenin-1] | – | – | >50 | > 50 | – | – | – | – | –
> 50 | > 50 | – | – | C[n+]1cccc(C(=O)[O-])c1 [Trigonelline] | > 50 | – | – | – | – | – | – | – | IC50 [3, 8]: > 50 µg/mL
16.3 ± 0.26 (≈ 39.3 µM) | 19.3 ± 0.97 (≈ 46.5 µM) | – | – | C[C@@H]1CC[C@@]2(OC1)O[C@H]1C[C@H]3[C@@H]4CC=C5C[C@@H](O)CC[C@]5(C)[C@H]4CC[C@]3(C)[C@H]1[C@@H]2C [Diosgenin] | 12.4 ± 0.5 (≈ 29.9 µM) | cytotoxic; also recorded: active | – | – | 0.76 | 0.84 | 1.38 | 0.64 | IC50 (HeLa cells [5]; RTCA, 24 h): 28 ± 2.4 µg/mL (≈ 67.5 µM); IC50 (HaCaT cells [6]): 23.4 ± 0.42 µg/mL (≈ 56.4 µM); IC50 (SKOV-3 cells [7]): ~20 µg/mL (≈ 48.2 µM); IC50 ± SD, SKOV-3 (SKOV-3 cells [7]): 16.90 ± 2.89 µg/mL (≈ 40.8 µM)
– | – | >50 | >50 µg/mL | O=c1cc(-c2ccc(O)cc2)oc2c([C@@H]3OC[C@@H](O)[C@H](O)[C@H]3O)c(O)c([C@@H]3O[C@H](CO)[C@@H](O)[C@H](O)[C@H]3O)c(O)c12 [Vicenin-3] | – | inactive | >50 | > 50 | – | – | – | – | –
– | – | >50 | >50 µg/mL | O=c1cc(-c2ccc(O)cc2)oc2c([C@@H]3O[C@H](CO)[C@@H](O)[C@H](O)[C@H]3O)c(O)c([C@@H]3O[C@H](CO)[C@@H](O)[C@H](O)[C@H]3O)c(O)c12 [Vicenin-2] | – | inactive | >50 | > 50 | – | – | – | – | –
